Reference: patent publication US20160185797A1, “ALKYNYL ALCOHOLS AND METHODS OF USE” (Genentech, Inc., priority 2013, published 2016)

Experiments:
[1] = system: p52 (NF-kB2) nuclear translocation in HeLa cells; assay: p52 (NF-kB2) nuclear translocation assay in HeLa cells, anti-lymphotoxin beta receptor antibody stimulated (non-classical NF-kB signaling), high content imaging; format: cell-based; details: Homo sapiens, 100 ng/mL anti-lymphotoxin beta receptor antibody for 5 hours, read-out: p52 HeLa Transloc Assay (IC50)
Method in brief: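 HeLa cells in 10% FBS medium were treated with compound (0.2% DMSO final) and stimulated with 100 ng/mL anti-lymphotoxin beta receptor antibody for 5 h. Fixed cells were immunostained for p52 and imaged with DRAQ5 nuclear stain. Translocation is the nuclear to cytoplasmic intensity ratio, […].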

[2] = target: T1, nuclear factor-kappa B (NF-kB)-inducing kinase (NIK) (Homo sapiens, UniProt Q99558); assay: NIK enzyme inhibition assay (Transcreener ADP fluorescence polarization, NIK ADP-FP); format: biochemical
T1 construct: made in house; host or cells: baculovirus-infected insect cells
T1 sequence (Q99558 whole entry): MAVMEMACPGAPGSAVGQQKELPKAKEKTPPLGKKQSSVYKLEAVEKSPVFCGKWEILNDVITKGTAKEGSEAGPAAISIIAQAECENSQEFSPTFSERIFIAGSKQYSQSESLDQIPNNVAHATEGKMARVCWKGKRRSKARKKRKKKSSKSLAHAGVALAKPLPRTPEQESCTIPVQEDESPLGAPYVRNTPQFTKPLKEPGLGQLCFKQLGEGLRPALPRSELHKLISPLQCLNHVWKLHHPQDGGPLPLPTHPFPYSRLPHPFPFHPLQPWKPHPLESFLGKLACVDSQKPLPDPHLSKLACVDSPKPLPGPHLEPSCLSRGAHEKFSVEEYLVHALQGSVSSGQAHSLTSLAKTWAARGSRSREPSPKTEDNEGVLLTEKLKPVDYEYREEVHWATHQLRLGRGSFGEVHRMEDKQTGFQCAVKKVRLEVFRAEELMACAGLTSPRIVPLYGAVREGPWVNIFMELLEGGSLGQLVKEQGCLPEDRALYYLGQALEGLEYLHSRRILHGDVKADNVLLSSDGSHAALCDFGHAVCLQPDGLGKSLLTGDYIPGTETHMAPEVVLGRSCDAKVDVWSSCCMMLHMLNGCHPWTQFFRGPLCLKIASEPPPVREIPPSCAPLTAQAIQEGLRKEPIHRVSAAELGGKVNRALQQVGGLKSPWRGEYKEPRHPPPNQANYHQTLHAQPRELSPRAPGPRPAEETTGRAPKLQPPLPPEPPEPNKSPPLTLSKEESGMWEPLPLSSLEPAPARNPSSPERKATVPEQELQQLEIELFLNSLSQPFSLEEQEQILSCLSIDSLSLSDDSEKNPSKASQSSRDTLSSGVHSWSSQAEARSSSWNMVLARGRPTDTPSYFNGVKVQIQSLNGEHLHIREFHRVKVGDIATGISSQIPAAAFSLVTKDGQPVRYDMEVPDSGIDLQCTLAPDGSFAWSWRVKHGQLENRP

[3] = system: REL-A (p65) nuclear translocation in HeLa cells; assay: REL-A (p65) nuclear translocation assay in HeLa cells, TNF-α stimulated (classical NF-kB signaling), high content imaging; format: cell-based; details: Homo sapiens, HeLa, compound 4.5 h, then 10 ng/mL TNF-α for 30 minutes, read-out: REL-A HeLa Transloc Assay (IC50)
Method in brief: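 HeLa cells in medium with 10% fetal bovine serum were exposed to compounds (0.2% DMSO final) for 4.5 hours, then stimulated with 10 ng/mL TNF-α for 30 minutes. After fixation in 4% paraformaldehyde and permeabilization with 0.1% Triton X-100, cells were stained with 400 ng/mL anti-REL-A (p65) antibody, an Alexa488 secondary and DRAQ5. Opera imaging quantified the nuclear-to-cytoplasmic signal ratio to give IC50.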

SMILES | IC50 [1] [nM] | Ki [2] [nM] | IC50 [3] [nM]
CN1CC[C@@](O)(C#Cc2cccc(-c3ncc(NC4CC4)c(C(N)=O)n3)c2)C1=O [Example 87, 5-(cyclopropylamino)-2-[3-[2-[(3R)-3-hydroxy-1-methyl-2-oxo-pyrrolidin-3-yl]ethynyl]phenyl] pyrimidine-4-carboxamide] | 4 | 0.14 | 1000
CC(C)C[C@@H]1CCCN1c1cc(C(N)=O)nc(-c2cccc(C#C[C@]3(O)CCN(C)C3=O)c2)n1 [Example 28, 2-[3-[2-[(3R)-3-hydroxy-1-methyl-2-oxo-pyrrolidin-3-yl]ethynyl]phenyl]-6-[(2S)-2-isobutylpyrrolidin-1-yl] pyrimidine-4-carboxamide] | 229 | 2.38 | > 20000
CN1CC[C@@](O)(C#Cc2cc(-c3cccc(C(N)=O)n3)c3ncsc3c2)C1=O [Example 160] | 416 | 0.5 | > 2000
CN1CC[C@@](O)(C#Cc2cccc(-c3nc(C(N)=O)c(NC4COC4)cc3F)c2)C1=O [Example 79, 5-fluoro-6-[3-[2-[(3R)-3-hydroxy-1-methyl-2-oxo-pyrrolidin-3-yl]ethynyl]phenyl]-3-(oxetan-3-ylamino)pyridine-2-carboxamide] | 9.86 | 0.05 | ≥ 20000
CN1CC[C@@](O)(C#Cc2cccc(-c3nc(OC4CCOCC4)c(N)c(C(N)=O)n3)c2)C1=O [Example 107, 5-amino-2-[3-[2-[(3R)-3-hydroxy-1-methyl-2-oxo-pyrrolidin-3-yl]ethynyl]phenyl]-6-tetrahydropyran-4-yloxy-pyrimidine-4-carboxamide] | 269 | 0.4 | ≥ 2000
CN1CC[C@@](O)(C#Cc2cccc(-c3nc(C(N)=O)cc(N4CCc5ccccc54)n3)c2)C1=O [Example 20, 2-[3-[2-[(3R)-3-hydroxy-1-methyl-2-oxo-pyrrolidin-3-yl]ethynyl]phenyl]-6-indolin-1-yl-pyrimidine-4-carboxamide] | 374 | 0.79 | 19100
COCCNc1ccc(-c2cccc(C#C[C@]3(O)CCN(C)C3=O)c2)nc1C(N)=O [Example 128, 6-[3-[2-[(3R)-3-hydroxy-1-methyl-2-oxo-pyrrolidin-3-yl]ethynyl]phenyl]-3-(2-methoxyethylamino) pyridine-2-carboxamide] | 27.2 | 0.05 | ≥ 2000
CN1CCC(O)(C#Cc2cccc(-c3nc(C(N)=O)cn4ccnc34)c2)C1=O (stereo in doubt) [Example 45, 8-(3-[2-[(3S)-3-hydroxy-1-methyl-2-oxopyrrolidin-3-yl]ethynyl]phenyl)imidazo [1,2-a]pyrazine-6-carboxamide] | 122 | 0.39 | > 20000
CN1CC[C@@](O)(C#Cc2cc(-c3ccc(N)c(C(N)=O)n3)c(F)cc2F)C1=O [Example 118, 3-amino-6-[2,4-difluoro-5-[2-[(3R)-3-hydroxy-1-methyl-2-oxo-pyrrolidin-3-yl]ethynyl]phenyl]pyridine-2-carboxamide] | 19 | 0.05 | ≥ 2000
CN1CC[C@@](O)(C#Cc2cccc(-c3ncc(NC4COC4)c(C(N)=O)n3)c2)C1=O [Example 88, 2-[3-[2-[(3R)-3-hydroxy-1-methyl-2-oxo-pyrrolidin-3-yl]ethynyl]phenyl]-5-(oxetan-3-ylamino) pyrimidine-4-carboxamide] | 2.12 | 0.05 | ≥ 20000
CN1CC[C@@](O)(C#Cc2cccc(-c3ncc(N)c(C(N)=O)n3)c2)C1=O [Example 145, 5-amino-2-[3-[2-[(3R)-3-hydroxy-1-methyl-2-oxo-pyrrolidin-3-yl]ethynyl]phenyl]pyrimidine-4-carboxamide] | 38 | 0.05 | ≥ 2000
COCCN(C)c1cc(C(N)=O)nc(-c2cccc(C#C[C@]3(O)CCN(C)C3=O)c2)n1 [Example 10, 2-[3-[2-[(3R)-3-hydroxy-1-methyl-2-oxo-pyrrolidin-3-yl]ethynyl]phenyl]-6-[2-methoxyethyl(methyl)amino] pyrimidine-4-carboxamide] | 266 | 1.17 | > 20000
Cc1cc(-c2cccc(C#C[C@]3(O)CCN(C)C3=O)c2)nc(C(N)=O)c1N [Example 170, 3-amino-6-[3-[2-[(3R)-3-hydroxy-l-methyl-2-oxo-pyrrolidin-3-yl]ethynyl]phenyl]-4-methyl-pyridine-2-carboxamide] | 26 | < 0.1 | > 2000
Cc1cc(C(N)=O)nc(-c2cc(C#C[C@]3(O)CCN(C)C3=O)ccc2F)c1 [Example 158, 6-[2-fluoro-5-[2-[(3R)-3-hydroxy-1-methyl-2-oxo-pyrrolidin-3-yl]ethynyl]phenyl]-4-methyl-pyridine-2-carboxamide] | 63 | 0.06 | > 2000
CN1CC[C@@](O)(C#Cc2cccc(-c3cc(C(F)(F)F)cc(C(N)=O)n3)c2)C1=O [Example 135, 6-[3-[2-[(3R)-3-hydroxy-1-methyl-2-oxo-pyrrolidin-3-yl]ethynyl]phenyl]-4-(trifluoromethyl) pyridine-2-carboxamide] | 147 | 0.53 | ≥ 2000
COCCOc1nc(-c2cccc(C#C[C@]3(O)CCN(C)C3=O)c2)nc(C(N)=O)c1N [Example 108, 5-amino-2-[3-[2-[(3R)-3-hydroxy-1-methyl-2-oxo-pyrrolidin-3-yl]ethynyl]phenyl]-6-(2-methoxyethoxy)pyrimidine-4-carboxamide] | 213 | 0.65 | ≥ 2000
CN1CC[C@@](O)(C#Cc2cccc(-c3nc4c(c(C(N)=O)n3)CCCC4)c2)C1=O [Example 34, 2-[3-[2-[(3R)-3-hydroxy-1-methyl-2-oxo-pyrrolidin-3-yl]ethynyl]phenyl]-5,6,7,8-tetrahydroquinazoline-4-carboxamide] | 138 | 1.42 | > 20000
CN1CC[C@@](O)(C#Cc2cccc(-c3cc(-c4ccnn4C)cc(C(N)=O)n3)c2)C1=O [Example 144, 6-[3-[2-[(3R)-3-hydroxy-1-methyl-2-oxo-pyrrolidin-3-yl]ethynyl]phenyl]-4-(2-methylpyrazol-3-yl) pyridine-2-carboxamide] | 199 | 0.69 | ≥ 2000
COCCNc1ncc(-c2cc(C#C[C@]3(O)CCN(C)C3=O)ccc2F)nc1C(N)=O [Example 134, 6-[2-fluoro-5-[2-[(3R)-3-hydroxy-1-methyl-2-oxo-pyrrolidin-3-yl]ethynyl]phenyl]-3-(2-methoxyethylamino) pyrazine-2-carboxamide] | 45.4 | 0.09 | ≥ 2000
CN1CC[C@@](O)(C#Cc2cccc(-c3nc(C(N)=O)cc(-c4ccn[nH]4)n3)c2)C1=O [Example 69, 2-[3-[2-[(3R)-3-hydroxy-1-methyl-2-oxo-pyrrolidin-3-yl]ethynyl]phenyl]-6-(1H-pyrazol-5-yl)pyrimidine-4-carboxamide] | 206 | 0.6 | ≥ 20000
CN1CC[C@@](O)(C#Cc2cccc(-c3nc(C(N)=O)c(NCC(F)(F)F)cc3F)c2)C1=O [Example 83, 5-fluoro-6-[3-[2-[(3R)-3-hydroxy-1-methyl-2-oxo-pyrrolidin-3-yl]ethynyl]phenyl]-3-(2,2,2-trifluoroethylamino) pyridine-2-carboxamide] | 11 | 0.15 | 1000
CN1CC[C@@](O)(C#Cc2cccc(-c3nc(C(N)=O)c4sccc4n3)c2)C1=O [Example 37, 2-[3-[2-[(3R)-3-hydroxy-1-methyl-2-oxo-pyrrolidin-3-yl]ethynyl]phenyl]thieno[3,2-d]pyrimidine-4-carboxamide] | 13.9 | 0.12 | > 20000
COc1cc(-c2cccc(C#C[C@]3(O)CCN(C)C3=O)c2)nc(C(N)=O)c1C [Example 169, 6-[3-[2-[(3R)-3-hydroxy-1-methyl-2-oxo-pyrrolidin-3-yl]ethynyl]phenyl]-4-methoxy-3-methyl-pyridine-2-carboxamide] | 196 | 0.55 | > 2000
Cc1nnc([C@](C)(O)C#Cc2cccc(-c3nc(C(N)=O)cc(-n4nccc4C)n3)c2)o1 [Example 150] | 628 | 0.99 | > 2000
CN1CC[C@@](O)(C#Cc2cccc(-c3cc4c(C(F)(F)F)c[nH]c4c(C(N)=O)n3)c2)C1=O [Example 159, 5-[3-[2-[(3R)-3-hydroxy-l-methyl-2-oxo-pyrrolidin-3-yl]ethynyl]phenyl]-3-(trifluoromethyl)-1H-pyrrolo [2,3-c]pyridine-7-carboxamide] | 73 | < 0.05 | > 2000
Cc1cc(C#C[C@]2(O)CCN(C)C2=O)cc(-c2nccc(C(N)=O)n2)c1 [Example 94, 2-[3-[2-[(3R)-3-hydroxy-1-methyl-2-oxo-pyrrolidin-3-yl]ethynyl]-5-methyl-phenyl]pyrimidine-4-carboxamide] | 175 | 1.41 | ≥ 20000
